Test results reported in patent US11560385B2, “Proteasome activity enhancing compounds” (Proteostasis Therapeutics, Inc., priority 2018, dated 2023).

Biological target: USP14 (Homo sapiens (Human), UniProt P54578)
Assay: Usp14 inhibition assay (Example 57B, B-series compounds)
Assay type: biochemical
Conditions: IC50 class; average value from a minimum of two experimental determinations
Excerpt: Example 57B: Usp14 Inhibition Assay
The IC50 values in the Table below represent the average value from a minimum of two experimental determinations.

Sequence of USP14 (P54578 whole entry, looked up): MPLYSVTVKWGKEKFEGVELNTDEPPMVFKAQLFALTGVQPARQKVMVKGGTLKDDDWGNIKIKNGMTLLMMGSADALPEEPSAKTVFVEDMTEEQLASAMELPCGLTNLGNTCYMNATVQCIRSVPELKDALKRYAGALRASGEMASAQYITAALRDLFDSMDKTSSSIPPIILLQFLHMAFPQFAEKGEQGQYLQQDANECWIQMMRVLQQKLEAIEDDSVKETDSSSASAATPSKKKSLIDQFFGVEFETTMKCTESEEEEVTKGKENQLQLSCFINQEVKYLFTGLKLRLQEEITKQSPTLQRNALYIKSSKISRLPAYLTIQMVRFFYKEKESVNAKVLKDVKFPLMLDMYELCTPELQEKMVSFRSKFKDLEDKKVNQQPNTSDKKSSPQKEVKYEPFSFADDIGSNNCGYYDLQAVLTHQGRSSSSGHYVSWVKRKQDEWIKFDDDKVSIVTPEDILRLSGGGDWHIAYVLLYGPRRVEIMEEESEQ

Row | Structure (SMILES) | IC50 [nM]
1 | Cc1c(F)c(C(=O)CN2[C@@H]3C=C(C(F)(F)F)[C@H]2CC3)c(C)n1-c1ccc(C#N)cc1 (racemic) [Example 149B, (±)-4-(3-Fluoro-2,5-dimethyl-4-(2-((1R,4S)-2-(trifluoromethyl)-7-azabicyclo[2.2.1]hept-2-en-7-yl)acetyl)-1H-pyrrol-1-yl)benzonitrile] | 50 to 500
2 | Cc1c(C(=O)CN2C3CCC2C(O)C3)cc([C@@H](C)C2CCC2)n1-c1ccc(C#N)cc1 (mixture of isomers) [Example 150B, (±)-4-(5-((S)-1-Cyclobutylethyl)-3-(2-((2R)-2-hydroxy-7-azabicyclo[2.2.1]heptan-7-yl)acetyl)-2-methyl-1H-pyrrol-1-yl)benzonitrile] | 50 to 500
3 | Cc1c(C(=O)CN2C3CCC2[C@@H](O)C3)cc(/C=C/CN2C(=O)c3ccccc3C2=O)n1-c1ccc(C#N)cc1 (mixture of isomers) [Example 153B, (±)-4-(5-0E)-3-(1,3-Dioxoisoindolin-2-yl)prop-1-en-1-yl)-3-(2-((1R,2R,4S)-2-hydroxy-7-azabicyclo[2.2.1]heptan-7-yl)acetyl)-2-methyl-1H-pyrrol-1-yl)benzonitrile] | < 50
4 | Cc1c(C(=O)CN2C3CCC2[C@@H](O)C3)cc(CCCOC(F)(F)F)n1-c1ccc(C#N)cc1 (mixture of isomers) [Example 155B, (±)-4-(3-(2-((1R,2R,4R)-2-Hydroxy-7-azabicyclo[2.2.1]heptan-7-yl(acetyl)-2-methyl-5-(3-(trifluoromethoxy)propyl)-1H-pyrrol-1-yl)benzonitrile] | 50 to 500
5 | Cc1c(C(=O)CN2[C@@H]3CC[C@@H]2[C@@H](O)C3)cc(/C=C/CN)n1-c1ccc(C#N)cc1 (racemic) [Example 156B, (±)-4-(5-((E)-3-Aminoprop-1-en-1-yl)-3-(2-((1S,2R,4S)-2-hydroxy-7-azabicyclo[2.2.1]heptan-7-yl)acetyl)-2-methyl-1H-pyrrol-1-yl)benzonitrile] | < 50
6 | Cc1c(C(=O)CN2[C@H]3CC[C@@H]2[C@@H](O)C3)cc(CC2(Cl)CCC2)n1-c1ccc(C#N)cc1 (racemic) [Example 157B, (±)-4-(5-((1-Chlorocyclobutyl)methyl)-3-(2-((1S,2R,4R)-2-hydroxy-7-azabicyclo[2.2.1]heptan-7-yl)acetyl)-2-methyl-1H-pyrrol-1-yl)benzonitrile] | 50 to 500
7 | Cc1c(C(=O)CN2[C@H]3CC[C@@H]2[C@@H](O)C3)cc(CC23CC(C2)C3)n1-c1ccc(C#N)cc1 (racemic) [Example 158B, (±)-4-(5-(Bicyclo[1.1.1]pentan-1-ylmethyl)-3-(2-((1R,2S,4S)-2-hydroxy-7-azabicyclo[2.2.1]heptan-7-yl)acetyl)-2-methyl-1H-pyrrol-1-yl)benzonitrile] | > 500
8 | COCCCCc1cc(C(=O)CN2[C@@H]3CC[C@H]2[C@@H](O)C3)c(C)n1-c1ccc(C#N)cc1 (stereo in doubt) [Example 12B, (rel)-4-(3-(2-((1R,2R,4S)-2-Hydroxy-7-azabicyclo[2.2.1]heptan-7-yl)acetyl)-5-(4-methoxybutyl)-2-methyl-1H-pyrrol-1-yl)benzonitrile] | < 50
9 | COCCCCc1cc(C(=O)CN2[C@H]3CC[C@@H]2[C@H](O)C3)c(C)n1-c1ccc(C#N)cc1 (stereo in doubt) [Example 13B, (rel)-4-(3-(2-((1S,2S,4R)-2-Hydroxy-7-azabicyclo[2.2.1]heptan-7-yl)acetyl)-5-(4-methoxybutyl)-2-methyl-1H-pyrrol-1-yl)benzonitrile] | < 50
10 | Cc1c(C(=O)CN2C3CCC2C(O)C3)cc([C@H](C)C2CCC2)n1-c1ccc(C#N)cc1 (stereo in doubt) [Example 151B, 4-(5-((R)-1-Cyclobutylethyl)-3-(2-((2R)-2-hydroxy-7-azabicyclo[2.2.1]heptan-7-yl)acetyl)-2-methyl-1H-pyrrol-1-yl)benzonitrile] | > 500
11 | Cc1c(C(=O)CN2C3CCC2CC3)c(C)n(-c2ccc(C#N)cc2)c1CCCCS(C)(=O)=O [Example 1B, 4-(3-(2-(7-Azabicyclo[2.2.1]heptan-7-yl)acetyl)-2,4-dimethyl-5-(4-(methylsulfonyl)butyl)-1H-pyrrol-1-yl)benzonitrile] | > 500
12 | Cc1c(C(=O)CN2[C@@H]3CC[C@@H]2CC(O)C3)cc(CCCCS(C)(=O)=O)n1-c1ccc(C#N)cc1 (stereo partly drawn) [Example 7B, 4-(3-(2-((1R,3r,5S)-3-Hydroxy-8-azabicyclo[3.2.1]octan-8-yl)acetyl)-2-methyl-5-(4-(methylsulfonyl)butyl)-1H-pyrrol-1-yl)benzonitrile] | < 50
13 | Cc1c(C(=O)CN2C3CCC2CC3)c(C)n(-c2ccc(C#N)cc2)c1-c1ccc(C#N)cc1 [Example 16B, 4,4′-(4-(2-(7-Azabicyclo[2.2.1]heptan-7-yl)acetyl)-3,5-dimethyl-1H-pyrrole-1,2-diyl)dibenzonitrile] | > 500
14 | Cc1c(C(=O)CN2C3CCC2CC3)cc(CCCCS(C)(=O)=O)n1-c1ccc(Cl)cc1 [Example 18B, 2-(7-Azabicyclo[2.2.1]heptan-7-yl)-1-(1-(4-chlorophenyl)-2-methyl-5-(4-(methylsulfonyl)butyl)-1H-pyrrol-3-yl)ethan-1-one] | 50 to 500
15 | Cc1c(C(=O)CN2C3CC4CC2CC(C3)O4)cc(C#CCCC#N)n1-c1ccc(C#N)cc1 [Example 21B, 4-(3-(2-((1r,3r,5r,7r)-2-Oxa-6-azaadamantan-6-yl)acetyl)-5-(4-cyanobut-1-yn-1-yl)-2-methyl-1H-pyrrol-1-yl)benzonitrile] | 50 to 500
16 | Cc1c(C(=O)CN2C3CCC2CC3)cc(CC2CCS(=O)(=O)CC2)n1-c1ccc(Cl)cc1 [Example 25B, 2-(7-Azabicyclo[2.2.1]heptan-7-yl)-1-(1-(4-chlorophenyl)-5-((1,1-dioxidotetrahydro-2H-thiopyran-4-yl)methyl)-2-methyl-1H-pyrrol-3-yl)ethan-1-one] | 50 to 500

Row | Structure (SMILES) | IC50 [nM]
17 | Cc1c(C(=O)CN2C3CCC2CC3)cc(/C=C\CCS(C)(=O)=O)n1-c1ccc(C#N)cc1 [Example 26B] | < 50
18 | Cc1c(C(=O)CN2C3CCC2CC3)cc(CCCCS(C)(=O)=O)n1-c1ccc(C#N)cc1 [Example 30B, 4-(3-(2-(7-Azabicyclo[2.2.1]heptan-7-yl)acetyl)-2-methyl-5-(4-(methylsulfonyl)butyl)-1H-pyrrol-1-yl)benzonitrile] | < 50
19 | Cc1c(C(=O)CN2C3CCC2CC3)cc(CCCCC#N)n1-c1ccc(Cl)cc1 [Example 31B, 5-(4-(2-(7-Azabicyclo[2.2.1]heptan-7-yl)acetyl)-1-(4-chlorophenyl)-5-methyl-1H-pyrrol-2-yl)pentanenitrile] | 50 to 500
20 | Cc1c(C(=O)CN2C3CCC2CC3)c(C)n(-c2ccc(C#N)cc2)c1/C=C/CCS(C)(=O)=O [Example 32B, (E)-4-(3-(2-(7-Azabicyclo[2.2.1]heptan-7-yl)acetyl)-2,4-dimethyl-5-(4-(methylsulfonyl)but-1-en-1-yl)-1H-pyrrol-1-yl)benzonitrile] | 50 to 500
21 | Cc1c(C(=O)CN2C3CCC2CC3)cc(/C=C/CCS(C)(=O)=O)n1-c1ccc(Cl)cc1 [Example 34B, (E)-2-(7-Azabicyclo[2.2.1]heptan-7-yl)-1-(1-(4-chlorophenyl)-2-methyl-5-(4-(methylsulfonyl)but-1-en-1-yl)-1H-pyrrol-3-yl)ethan-1-one] | < 50
22 | Cc1c(C(=O)CN2C3CCC2CC3)cc(/C=C/CCS(C)(=O)=O)n1-c1ccc(C#N)cc1 [Example 35B, (E)-4-(3-(2-(7-Azabicyclo[2.2.1]heptan-7-yl)acetyl)-2-methyl-5-(4-(methylsulfonyl)but-1-en-1-yl)-1H-pyrrol-1-yl)benzonitrile] | < 50
23 | Cc1c(C(=O)CN2C3CCC2CC3)cc(CC2COC2)n1-c1ccc(C#N)cc1 [Example 54B, 4-(3-(2-(7-Azabicyclo[2.2.1]heptan-7-yl)acetyl)-2-methyl-5-(oxetan-3-ylmethyl)-1H-pyrrol-1-yl)benzonitrile] | < 50
24 | Cc1cc(C(=O)CN2C3CCC2CC3)c(C)n1-c1ccc(C#N)cc1 [Example 63B, 4-(3-(2-(7-Azabicyclo[2.2.1]heptan-7-yl)acetyl)-2,5-dimethyl-1H-pyrrol-1-yl)benzonitrile] | > 500
25 | Cc1cc(C(=O)CN2[C@@H]3CC[C@@H]2CC(O)C3)c(C)n1-c1ccc(C#N)cc1 (stereo partly drawn) [Example 66B, 4-(3-(2-((1R,3r,5S)-3-Hydroxy-8-azabicyclo[3.2.1]octan-8-yl)acetyl)-2,5-dimethyl-1H-pyrrol-1-yl)benzonitrile] | 50 to 500
26 | Cc1cc(C(=O)CN2[C@@H]3CC[C@@H]2CC(O)C3)c(C)n1-c1ccc(C#N)cc1 (stereo partly drawn) [Example 67B, 4-(3-(2-((1R,3s,5S)-3-hydroxy-8-azabicyclo[3.2.1]octan-8-yl)acetyl)-2,5-dimethyl-1H-pyrrol-1-yl)benzonitrile] | 50 to 500
27 | Cc1cc(C(=O)CN2[C@@H]3CC[C@@H]2CC(C)(O)C3)c(C)n1-c1ccc(C#N)cc1 (stereo partly drawn) [Example 68B, 4-(3-(2-((1R,3r,5S)-3-Hydroxy-3-methyl-8-azabicyclo[3.2.1]octan-8-yl)acetyl)-2,5-dimethyl-1H-pyrrol-1-yl)benzonitrile] | 50 to 500
28 | Cc1cc(C(=O)CN2C3CCCC2CC3)c(C)n1-c1ccc(C#N)cc1 [Example 69B, 4-(3-(2-(8-Azabicyclo[3.2.1]octan-8-yl)acetyl)-2,5-dimethyl-1H-pyrrol-1-yl)benzonitrile] | 50 to 500
29 | Cc1cc(C(=O)CN2[C@@H]3CC[C@@H]2CC(O)(C(F)(F)F)C3)c(C)n1-c1ccc(C#N)cc1 (stereo partly drawn) [Example 74B, 4-(3-(2-((1R,3r,5S)-3-Hydroxy-3-(trifluoromethyl)-8-azabicyclo[3.2.1]octan-8-yl)acetyl)-2,5-dimethyl-1H-pyrrol-1-yl)benzonitrile] | > 500
30 | Cc1cc(C(=O)CN2[C@@H]3CC[C@@H]2CC(O)(C(F)(F)F)C3)c(C)n1-c1ccc(C#N)cc1 (stereo partly drawn) [Example 75B, 4-(3-(2-((1R,3s,5S)-3-Hydroxy-3-(trifluoromethyl)-8-azabicyclo[3.2.1]octan-8-yl)acetyl)-2,5-dimethyl-1H-pyrrol-1-yl)benzonitrile] | 50 to 500
31 | Cc1cc(C(=O)CN2C3CC4CC(C3)CC2C4)c(C)n1-c1ccc(C#N)cc1 [Example 80B, 4-(3-(2-((5r,7r)-2-Azaadamantan-2-yl)acetyl)-2,5-dimethyl-1H-pyrrol-1-yl)benzonitrile] | < 50
